Counter-ions that a name gives are not always drawn.
Experiments:
[1] = target: T1, recombinant guanylate cyclase reporter cell line (Rattus norvegicus, UniProt P20595); assay: Effect on a recombinant guanylate cyclase reporter cell line; format: cell-based; settings: for EC50: read-out: EC50 (half maximal effective concentration)
T1 construct: expressed in transfected cells; host or cells: recombinant reporter cell line
T1 sequence (P20595 1-619): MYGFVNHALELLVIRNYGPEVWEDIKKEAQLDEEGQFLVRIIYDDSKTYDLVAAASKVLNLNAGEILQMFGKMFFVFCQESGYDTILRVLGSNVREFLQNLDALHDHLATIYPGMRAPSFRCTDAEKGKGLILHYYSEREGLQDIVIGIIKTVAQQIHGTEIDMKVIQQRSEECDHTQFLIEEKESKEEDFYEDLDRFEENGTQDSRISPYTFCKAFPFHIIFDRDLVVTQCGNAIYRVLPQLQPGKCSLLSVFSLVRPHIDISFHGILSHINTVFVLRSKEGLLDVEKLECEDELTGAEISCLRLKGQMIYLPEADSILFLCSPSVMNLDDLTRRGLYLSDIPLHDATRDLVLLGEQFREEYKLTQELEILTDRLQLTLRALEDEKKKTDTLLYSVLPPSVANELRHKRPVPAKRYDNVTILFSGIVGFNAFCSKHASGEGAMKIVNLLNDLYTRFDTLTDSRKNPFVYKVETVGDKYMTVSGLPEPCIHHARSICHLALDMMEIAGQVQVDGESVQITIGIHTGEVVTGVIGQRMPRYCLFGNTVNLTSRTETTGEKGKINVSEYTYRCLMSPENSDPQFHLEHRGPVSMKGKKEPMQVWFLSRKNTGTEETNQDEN
T1 sequence (P19686 1-690 partner): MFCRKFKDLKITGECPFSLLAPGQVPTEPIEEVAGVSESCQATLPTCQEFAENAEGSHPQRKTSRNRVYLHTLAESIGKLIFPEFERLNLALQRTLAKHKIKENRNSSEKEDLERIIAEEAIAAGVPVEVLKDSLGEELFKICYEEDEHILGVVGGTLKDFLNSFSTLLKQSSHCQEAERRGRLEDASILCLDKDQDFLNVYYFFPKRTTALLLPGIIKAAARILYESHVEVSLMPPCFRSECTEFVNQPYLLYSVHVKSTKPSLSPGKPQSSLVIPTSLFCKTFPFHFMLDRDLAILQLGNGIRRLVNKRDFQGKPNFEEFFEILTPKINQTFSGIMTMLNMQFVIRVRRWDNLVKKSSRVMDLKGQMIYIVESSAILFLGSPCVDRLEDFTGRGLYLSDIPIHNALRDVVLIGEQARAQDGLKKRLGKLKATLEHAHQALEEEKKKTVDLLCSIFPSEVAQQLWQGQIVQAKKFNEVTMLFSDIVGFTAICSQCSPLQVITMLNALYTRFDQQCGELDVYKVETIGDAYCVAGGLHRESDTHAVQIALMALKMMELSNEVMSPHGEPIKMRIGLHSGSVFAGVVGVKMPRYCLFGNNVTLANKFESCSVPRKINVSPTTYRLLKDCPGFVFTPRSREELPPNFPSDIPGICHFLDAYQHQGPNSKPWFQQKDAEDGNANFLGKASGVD
Description: B-1. Effect on a Recombinant Guanylate Cyclase Reporter Cell Line
The cellular activity of the compounds according to the invention was determined using a recombinant guanylate cyclase reporter cell line, as described in F. Wunder et al., Anal. Biochem. 339, 104-112 (2005).

[2] = Pharmacokinetic parameters following intravenous and oral administration in rats; format: in vivo, male Wistar rats
From the text: (§1) • Klaus Witte, Kai Hu, Johanna Swiatek, Claudia Müssig, Georg Ertl and Björn Lemmer: Experimental heart failure in rats: effects on cardiovascular circadian rhythms and on myocardial β-adrenergic signaling. Cardiovasc Res 47 (2): […], 2000; Kozo Okamoto: Spontaneous hypertension in rats. Int Rev Exp Pathol 7: 227-270, 1969; Maarten van den Buuse: Circadian Rhythms of Blood Pressure, Heart Rate, and Locomotor Activity in Spontaneously Hypertensive Rats as Measured With Radio-Telemetry. Physiology & Behavior 55(4): 783-787, 1994. B-5. Determination of Pharmacokinetic Parameters Following Intravenous and Oral Administration
(§2) The pharmacokinetic parameters of the compounds according to the invention were determined in male Wistar rats and/or in female beagles and/or in cynomolgus monkeys and/or in male CD-1 mice. Intravenous administration in the case of mice and rats was carried out by means of a species-specific plasma/DMSO formulation, and in the case of dogs and monkeys by means of a water/PEG400/ethanol formulation. In all species, oral administration of the dissolved substance was performed via gavage, based on a water/PEG400/ethanol formulation.
(§3) An internal standard (which may also be a chemically unrelated substance) was added to the samples of the compounds of the invention, calibration samples and qualifiers, and there followed protein precipitation by means of acetonitrile in excess. Addition of a buffer solution matched to the LC conditions, and subsequent vortexing, was followed by centrifugation at 1000 g. The supernatant was analysed by LC-MS/MS using C18 reversed-phase columns and variable mobile phase mixtures. The substances were quantified via the peak heights or areas from extracted ion chromatograms of specific selected ion monitoring experiments.
(§4) The plasma concentration/time plots determined were used to calculate the pharmacokinetic parameters such as AUC, Cmax, t1/2 (terminal half-life), F (bioavailability), MRT (mean residence time) and CL (clearance), by means of a validated pharmacokinetic calculation program.
(§5) Since the substance quantification was performed in plasma, it was necessary to determine the blood/plasma distribution of the substance in order to be able to adjust the pharmacokinetic parameters correspondingly.
(§6) For this purpose, a defined amount of substance was incubated in K3 EDTA whole blood of the species in question in a rocking roller mixer for 20 min. After centrifugation at 1000 g, the plasma concentration was measured (by means of LC-MS/MS; see above) and determined by calculating the ratio of the Cblood/Cplasma value.

[3] = Pharmacokinetic parameters following intravenous and oral administration in dogs; format: in vivo, female beagles; settings: for bioavailability: female, beagle, dog, plasma, read-out: F (bioavailability)
From the text: as §1, §2, §3, §4, §5, §6

[4] = rats, intravenous administration
[5] = rats, oral administration (p.o.)

SMILES | MEC (minimum effective concentration) [1] | AUCnorm [2, 4] | AUCnorm [2, 5] | F (bioavailability) [2, 5] | bioavailability ([3]; oral administration (p.o.)) | AUCnorm ([3]; intravenous administration) | AUCnorm ([3]; oral administration (p.o.)) | bioavailability ([2]; male, Wistar, rat, plasma, po, rats, oral administration (p.o.), read-out: F (bioavailability)) | EC50 [1] | lower plasma clearance (CLplasma) in comparison to example 174 in WO 2012/058132 ([2]; in rats as well as in dogs)
CC(C)CN1CCN(c2ccc(-c3ccc(Cl)cc3N3CCCC(n4ncc(C(=O)O)c4C(F)F)C3)cc2)CC1 (single isomer, unassigned; enantiomer 1) [Example 1, 1-[1-{4-Chloro-4′-[4-(2-methylpropyl)piperazin-1-yl][1,1′-biphenyl]-2-yl}piperidin-3-yl]-5-(difluoromethyl)-1H-pyrazole-4-carboxylic acid hydrochloride (Enantiomer 1)] | 2.3 nM | 1.77 kg·h/L | 0.57 kg·h/L | 31.4% |  |  |  |  |  | 
O=C(O)c1cnn(-c2cccc(-c3cc(Cl)ccc3-c3ccc(N4CCN(CC5CC5)CC4)cc3)n2)c1C(F)(F)F [174 (WO2012/058132), reference compound] |  | 0.77 kg·h/L | 0.63 kg·h/L |  | 41.6% | 5.00 kg·h/L | 2.08 kg·h/L | 81.8% |  | 
CC(C)CN1CCN(c2ccc(-c3ccc(Cl)cc3N3CCCC(n4ncc(C(=O)O)c4C(F)F)C3)cc2)CC1 (single isomer, unassigned; enantiomer 2) [Example 3, 1-{1-[4-Chloro-4′-(4-isobutylpiperazin-1-yl)[biphenyl]-2-yl]piperidin-3-yl}-5-(difluoromethyl)-1H-pyrazole-4-carboxylic acid hydrochloride (Enantiomer 2)] | 0.6 nM |  |  |  |  |  |  |  | 2.7 nM | 
CC(C)CN1CCN(c2ccc(-c3ccc(Cl)cc3N3CCCC(n4ncc(C(=O)O)c4C(F)F)C3)cc2)CC1 (single isomer, unassigned; enantiomer 2) [Example 2, 1-[1-{4-Chloro-4′-[4-(2-methylpropyl)piperazin-1-yl][1,1′-biphenyl]-2-yl}piperidin-3-yl]-5-(difluoromethyl)-1H-pyrazole-4-carboxylic acid (Enantiomer 2)] | 1.0 nM | 7.08 kg·h/L | 3.77 kg·h/L | 53.3% | 82.8% | 81.7 kg·h/L | 67.7 kg·h/L |  | 8.6 nM | up to 10 times
